This test has as its target T1, DMPK (Homo sapiens, UniProt Q09013).
T1 construct: purchased Thermo Fisher Scientific (Life Technologies) SelectScreen
In words: SelectScreen LanthaScreen. Particulars: read-out: % displacement. The test is classed as binding. Summed up: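 NU5455 was profiled across the SelectScreen Broad panel of kinase activity and binding assays. Z'LYTE reactions such as CSF1R ran at apparent Km ATP, while the Adapta CAMK1 assay used ATP listed as 10. Values are given as percent.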

SMILES strings stand for the structures.

For 1 compound, inhibition results are on record in PMC6934184, “Selective DNA-PKcs inhibition extends the therapeutic index of localized radiotherapy and chemotherapy” (The Journal of Clinical Investigation, 2019).

T1 sequence (Q09013 whole entry): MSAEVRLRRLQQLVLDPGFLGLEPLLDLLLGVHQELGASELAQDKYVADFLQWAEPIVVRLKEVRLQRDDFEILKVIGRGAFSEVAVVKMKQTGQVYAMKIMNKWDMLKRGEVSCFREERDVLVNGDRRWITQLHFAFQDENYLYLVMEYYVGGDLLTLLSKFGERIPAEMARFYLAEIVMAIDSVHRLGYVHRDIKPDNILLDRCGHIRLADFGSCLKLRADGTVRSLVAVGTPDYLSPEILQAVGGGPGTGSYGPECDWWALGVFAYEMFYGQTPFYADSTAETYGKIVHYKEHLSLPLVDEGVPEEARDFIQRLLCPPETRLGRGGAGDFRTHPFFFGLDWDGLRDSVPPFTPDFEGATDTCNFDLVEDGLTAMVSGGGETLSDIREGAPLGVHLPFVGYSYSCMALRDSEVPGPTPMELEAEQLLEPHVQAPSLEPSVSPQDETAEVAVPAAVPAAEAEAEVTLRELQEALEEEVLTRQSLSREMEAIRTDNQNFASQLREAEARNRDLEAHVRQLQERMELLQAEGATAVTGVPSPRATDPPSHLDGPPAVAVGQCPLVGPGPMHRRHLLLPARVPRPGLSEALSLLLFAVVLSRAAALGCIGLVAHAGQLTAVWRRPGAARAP

As for `CN(C(=O)CN1CCOCC1)c1ccc2sc3c(-c4cccc5c(=O)cc(N6CC7CCC(C6)O7)oc45)cccc3c2c1` [NU5455], the inhibition at 1 µM was -1.5%.
